# Experimental data as given in US8920832B2, “Composition for nucleic acid transfection” (Hokkaido System Science Co., Ltd., priority 2006, dated 2014).
# Columns and labels:
# HT1080 cells [1] = assay: Cytotoxicity score under microscope after DNA transfection, HT1080 cells; assay type: cell-based; design: scale not given here
# From the text: (§1) The procedure of Test Example 5 was repeated, except that HeLa cells were replaced with HT1080 cells.
# (§2) The procedure of Test Example 7 was repeated, except that HeLa cells were replaced with HT1080 cells.
# HT1080 cells [2] = assay: DNA (pCMV-SPORT-βgal) transfection into HT1080 cells: β-gal activity; assay type: cell-based
# From the text: as §1, §2
# HT1080 cells [3] = assay: Viable cell counting (WST-1), cell survival rate, HT1080 cells; assay type: cell-based
# Description: (§3) Viable cell counting was carried out by means of a Cell Counting Kit (product of Dojindo Laboratories) based on WST-1 assay. […] Thereafter, absorbance was measured at 450 nm. A cell count vs. A450 standard curve was prepared on the basis of a separately prepared dilution series of different numbers of inoculated cells, and the number of viable cells was estimated by use of the standard curve.
# as §1, §2
# HeLa cells [4] = assay: Viable cell counting (WST-1), cell survival rate, HeLa cells; assay type: cell-based
# Description: as §3
# HeLa cells [5] = assay: Cytotoxicity score under microscope after DNA transfection, HeLa cells; assay type: cell-based
# Description: (§4) HeLa cells were inoculated into a 96-well plate (7,500 cells/100 μL/well), followed by culturing for about 24 hours. DNA (pCMV-SPORT-βgal) was diluted with a DMEM medium, to thereby prepare a DNA-diluted solution having a DNA concentration of 8 μg/mL (for the case of 200 ng/well). […] The thus-obtained solution or Lipofectamine 2000 as a positive control (product of Invitrogen) was diluted with a DMEM medium so that the amount of the reconstituted liposome solution or Lipofectamine 2000 added to cells was “Amount of liposomes added (μL/well)” shown in Table 9 or 10. Immediately after dilution, the DNA-diluted solution (25 μL) was added to and mixed with the liposome-diluted solution (25 μL), and the mixture was allowed to stand still at room temperature for 30 minutes, to thereby form a DNA/liposome complex. The DNA/liposome complex (50 μL) was added to the inoculated HeLa cells (about 70 to about 90% confluent), to thereby initiate transfection. After culturing at 37° C. and 5% CO2 for one hour, a 10% FBS/DMEM medium (100 μL) was added to the culture liquid, followed by culturing at 37° C. and 5% CO2 for about 21 hours.
# (§5) Each of the enhancers shown in Table 13 was diluted with a DMEM medium to different concentrations so that the amount of the enhancer finally added to cells was “Enhancer amount (μg/well)” shown in Table 13. […] The thus-diluted liposome solution was added to an equiamount of the above-diluted enhancer, followed by incubation at room temperature for 20 minutes. […] Subsequently, cytotoxicity was evaluated according to the aforementioned scores, and determination of β-gal activity, quantitative determination of protein, and viable cell counting were carried out.
# HeLa cells [6] = assay: DNA (pCMV-SPORT-βgal) transfection into HeLa cells: β-gal activity; conditions: HeLa
# Description: as §4
# The culture supernatant was removed, and the cells were washed with PBS(−). Thereafter, determination of β-galactosidase (hereinafter may be abbreviated as “β-gal”) activity, quantitative determination of protein, and viable cell counting were carried out as described below.
# After complete removal of PBS through suction, a lysis buffer (30 μL) was added to the cells, and the mixture was stirred and then allowed to stand still at −80° C. for 30 minutes or longer for freezing. After rapid thawing in a water bath at 37° C., the mixture was again allowed to stand still at −80° C. for 30 minutes or longer for freezing, followed by rapid thawing in a water bath at 37° C. Thereafter, centrifugation was carried out (2,000 g×10 minutes), and the resultant supernatant (sample) (10 μL) was added to a 96-well microplate.
# Determination of β-gal activity was carried out by means of a β-gal assay kit (product of Invitrogen). […] A 2-Me-containing cleavage buffer was added (50 μL/well) to the sample or each of the standard-diluted solutions (10 μL), and 4 mg/mL aqueous ONPG solution was added (17 μL/well), followed by incubation at 37° C. for 30 minutes. After completion of incubation, a stop buffer was added (120 μL/well) for termination of reaction, and absorbance was measured at 405 nm.
# as §5
# [7] = Formulation Example 4 0.38 μL/well, enhancer 0.625 μg/well
# [8] = Formulation Example 4 0.38 μL/well, enhancer 1.25 μg/well
# [9] = Formulation Example 4 0.38 μL/well, enhancer 2.5 μg/well
# [10] = Formulation Example 4 0.38 μL/well, enhancer 5 μg/well
# [11] = Formulation Example 4 0.38 μL/well, enhancer 10 μg/well
# [12] = Formulation Example 4 0.75 μL/well, enhancer 0.625 μg/well
# [13] = Formulation Example 4 0.75 μL/well, enhancer 1.25 μg/well
# [14] = Formulation Example 4 0.75 μL/well, enhancer 2.5 μg/well
# [15] = Formulation Example 4 0.75 μL/well, enhancer 5 μg/well
# [16] = Formulation Example 4 0.75 μL/well, enhancer 10 μg/well
substance,measurement,setting,value
poly L-lysine,Cytotoxicity score,HT1080 cells [1]; [7],2.0
same,Cytotoxicity score,HT1080 cells [1]; [8],2.0
same,Cytotoxicity score,HT1080 cells [1]; [9],1.0
same,Cytotoxicity score,HT1080 cells [1]; [10],0.5
same,Cytotoxicity score,HT1080 cells [1]; [11],1.0
same,Cytotoxicity score,HT1080 cells [1]; [12],2.5
same,Cytotoxicity score,HT1080 cells [1]; [13],2.0
same,Cytotoxicity score,HT1080 cells [1]; [14],1.5
same,Cytotoxicity score,HT1080 cells [1]; [15],0.5
same,Cytotoxicity score,HT1080 cells [1]; [16],1.0
same,β-gal activity,HT1080 cells [2]; [7],76.7 mU/well
same,β-gal activity,HT1080 cells [2]; [8],49.5 mU/well
same,β-gal activity,HT1080 cells [2]; [9],25.7 mU/well
same,β-gal activity,HT1080 cells [2]; [10],12.2 mU/well
same,β-gal activity,HT1080 cells [2]; [11],8.8 mU/well
same,β-gal activity,HT1080 cells [2]; [12],98.0 mU/well
same,β-gal activity,HT1080 cells [2]; [13],93.8 mU/well
same,β-gal activity,HT1080 cells [2]; [14],59.2 mU/well
same,β-gal activity,HT1080 cells [2]; [15],42.7 mU/well
same,β-gal activity,HT1080 cells [2]; [16],25.3 mU/well
same,Cell survival rate,HT1080 cells [3]; [7],53%
same,Cell survival rate,HT1080 cells [3]; [8],72%
same,Cell survival rate,HT1080 cells [3]; [9],78%
same,Cell survival rate,HT1080 cells [3]; [10],65%
same,Cell survival rate,HT1080 cells [3]; [11],80%
same,Cell survival rate,HT1080 cells [3]; [12],62%
same,Cell survival rate,HT1080 cells [3]; [13],75%
same,Cell survival rate,HT1080 cells [3]; [14],82%
same,Cell survival rate,HT1080 cells [3]; [15],86%
same,Cell survival rate,HT1080 cells [3]; [16],82%
same,Cell survival rate,HeLa cells [4]; [7],62%
same,Cell survival rate,HeLa cells [4]; [8],71%
same,Cell survival rate,HeLa cells [4]; [9],70%
same,Cell survival rate,HeLa cells [4]; [10],70%
same,Cell survival rate,HeLa cells [4]; [11],76%
same,Cell survival rate,HeLa cells [4]; [12],73%
same,Cell survival rate,HeLa cells [4]; [13],94%
same,Cell survival rate,HeLa cells [4]; [14],99%
same,Cell survival rate,HeLa cells [4]; [15],97%
same,Cell survival rate,HeLa cells [4]; [16],99%
same,Cytotoxicity score,HeLa cells [5]; [7],0.5
same,Cytotoxicity score,HeLa cells [5]; [8],0.0
same,Cytotoxicity score,HeLa cells [5]; [9],0.0
same,Cytotoxicity score,HeLa cells [5]; [10],0.5
same,Cytotoxicity score,HeLa cells [5]; [11],0.5
same,Cytotoxicity score,HeLa cells [5]; [12],1.0
same,Cytotoxicity score,HeLa cells [5]; [13],0.5
same,Cytotoxicity score,HeLa cells [5]; [14],0.0
same,Cytotoxicity score,HeLa cells [5]; [15],0.0
same,Cytotoxicity score,HeLa cells [5]; [16],0.5
same,β-gal activity,HeLa cells [6]; [7],23.9 mU/well
same,β-gal activity,HeLa cells [6]; [8],3.4 mU/well
same,β-gal activity,HeLa cells [6]; [9],0.6 mU/well
same,β-gal activity,HeLa cells [6]; [10],0.6 mU/well
same,β-gal activity,HeLa cells [6]; [11],0.1 mU/well
same,β-gal activity,HeLa cells [6]; [12],54.1 mU/well
same,β-gal activity,HeLa cells [6]; [13],6.6 mU/well
same,β-gal activity,HeLa cells [6]; [14],1.5 mU/well
same,β-gal activity,HeLa cells [6]; [15],0.7 mU/well
same,β-gal activity,HeLa cells [6]; [16],0.2 mU/well
